Columns and labels:
[1] = Octanol-water distribution coefficient; type: physicochemical; settings: 1-octanol / DI water, absorbance at 330 nm
Method: Each compound was dissolved in a minimum amount of DMSO: CI1 (0.9 mg in 200 μl), CI2 (5.3 mg in 200 μl), CI3 (5.4 mg in 200 μl). Ten ml of DI water and 10 ml of 1-octanol were added in each compound and vigorously shaken for 2 min. and the vials of the compounds were settled down overnight. The phases were separated and UV-spectra of each phase were analyzed. Distribution coefficient of each compound was determined using absorbance of aqueous phases and organic phases at 330 nm.

[2] = Singlet oxygen 1270-nm luminescence and quantum yield; type: physicochemical; settings: for Singlet oxygen luminescence decay curve in organic solvent: CH3OD, 449 nm excitation; for Singlet oxygen decay curve when solvent changed to aqueous buffer: deuterated PBS versus CH3OD
From the text: The sample in a 0.25 mm quartz cell was illuminated within the resonant cavity as described above. Singlet oxygen phosphorescence at 1270 nm was monitored by a nitrogen-cooled germanium detector (Model EO-817, North Coast Scientific Corp, Santa Rosa, Calif.). Photoexcitation of the sample studied was induced by a 5 ns 355 nm laser pulse from a Q-switched Nd:YAG laser (Continuum Surelite II, Santa Clara, Calif.) equipped with an optical parametric oscillator (Opotek, Carlsbad, Calif.). Sample in deuterated PBS (pD ˜6.9) or in deuterated methanol (CH3OD) was excited with 449 nm wavelength.

CT26 cells = experiment: PDT phototoxicity, MTT assay; type: cell-based, murine; settings: 2 μM, 80 J/cm2 of light
Method: When the cells reached 80% confluence, they were washed with PBS and harvested with 2 mL of 0.25% trypsin-EDTA solution (Sigma). Cells were then centrifuged and counted in trypan blue to ensure viability and plated at density of 5000/well in flat-bottom 96 well plates (Fisher Sci, Pittsburgh, Pa.). Cells were allowed 24 h to attach.
On the following day dilutions of the fullerenes were prepared in complete RPMI medium and added to the cells at […] for 24 h incubation as described. Prior to illumination the fullerene solution was removed and fresh complete medium was replaced and the illumination (150 mW/cm2 white light, 1-80 J/cm2) was performed. The light spot covered 9 wells which were considered as one experimental group. All wells in a group were illuminated at the same time. […]
Following PDT treatment the cells were returned to the incubator overnight and the phototoxicity was measured using a 4 h MTT assay read at 560 nm using a microplate spectrophotometer (Spectra Max 340 PC, Molecular Devices, Sunnyvale, Calif.). […]
Briefly cells were treated with PDT sufficient to kill 80% of cells (5 J/cm2 for J774, 20 J/cm2 for LLC and 80 J/cm2 for CT26). […] Samples were incubated in the dark for 1 h at 37° C. and fluorescence was measured (excitation 400 nm, emission 505 nm). The protein per sample was measured with bicinchoninic acid protein assay.

J774 cells = experiment: Intracellular reactive oxygen species, H2DCFDA probe fluorescence microscopy; type: cell-based, murine; settings: 5 μM BF4 for 24 h, then probe, 5 J/cm2 405 nm laser, compared with probe alone
Method: J774 cells were incubated with 5 μM BF4 for 24 h and on the next day 5 μg/ml of 5- (and -6)-chloromethyl-2′-7′-dichlorodihydrofluoresceine diacetate, (CMH2DCFDA, Molecular Probes, Invitrogen) in complete medium was added and incubated for 30 min at 37° C., then cells were washed with PBS and 5 J/cm2 of 405 nm laser light (Nichia Corp, Detroit, Mich.) was delivered. Five to 10 min later a Leica DMR confocal laser fluorescence microscope (Leica Mikroskopie and Systeme GmbH, Wetzler, Germany) with excitation by a 488 nm argon laser and emission with a 530 nm+/−10 nm bandpass filter, and a 63×1.20 water immersion lens was used to image the cells at a resolution of 1024×1024 pixels. Images were acquired using TCS NT software (Version 1.6.551, Leica Lasertechnik, Heidelberg, Germany).

Compound | LogKow [1] | Octanol-water partition constant Kow [1] | Singlet oxygen luminescence decay curve in organic solvent [2] | Singlet oxygen quantum yield in O2 saturated D2O, higher than that found in air ([2]; O2 saturated D2O versus air saturated) | Singlet oxygen decay curve when solvent changed to aqueous buffer [2] | Singlet oxygen luminescence in aqueous buffer saturated with nitrogen ([2]; nitrogen saturated aqueous buffer) | Lethal dose of PDT (share of cells killed) (CT26 cells) [%] | Fluorescence of intracellular ROS probe after illumination (J774 cells)
C[N+]1(C)Cc2c3c4c5c6c7c8c9c(c%10c8c8c(c%11c%12c(c%13c%14ccc%15c(c2C1)c4c1c%15c%14c2c%13c%11c8c7c2c61)C[N+](C)(C)C%12)C1C[N+](C)(C)CC%101)C=CC3C95.[I-].[I-].[I-] (stereo not drawn) [CI3] | −0.43 | 0.37 | very similar luminescence decay curves | about 50% | remained almost unchanged | luminescence disappeared | 60 | 
O=C(NC(CO)CO)C1(C(=O)NC(CO)CO)C2c3c4c5c6c3c3c(c7ccc8c9ccc%10c%11ccc%12c%13c(c%14c6c6c3c7c8c3c9c%10c(c%13%11)c%14c36)C5C%12C=C4)C21 (stereo not drawn) [NI1] | −1.61 | 0.025 |  |  |  |  |  | 
Cc1cc2nc3c(=O)[nH]c(=O)nc-3n(C[C@H](O)[C@H](O)[C@H](O)CO)c2cc1C [riboflavin, Riboflavin, reference compound] |  |  | somewhat larger |  | remained almost unchanged |  |  | 
O=C(NC(CO)CO)C1(C(=O)NC(CO)CO)c2c1c1c3ccc4c5c6c7c(c8c9c7c7c%10c%11c%12c(ccc%13c2c2c1c1c3c4c6c7c1c%10c2c%12%13)C(C=C8)C9%11)C1C5C1(C(=O)NC(CO)CO)C(=O)NC(CO)CO (stereo not drawn) [NI2] | −1.49 | 0.032 |  |  |  |  |  | 
C[N+]1(C)CC2c3c4c5c6c3c3c(c7ccc8c9ccc%10c%11c%12c%13c%14c(c6c6c3c7c8c(c9c%10%13)c%146)=C3C5C(C=C4)C(C=C%11)C3%12)C2C1.[I-] (stereo not drawn) [CI1] | 2.15 | 140.80 | very similar luminescence decay curves |  | almost disappeared |  | 80 | large increase in fluorescence
C[N+]1(C)Cc2c(c3c4ccc5c6c7c8c9c%10c%11c%12c%13c(c%14c%12c%12c(c2c2c%12c%11c9c(c4c58)c32)C2C[N+](C)(C)CC%142)C=CC2C%13C=%10C7C2C=C6)C1.[I-].[I-] (stereo not drawn) [CI2] | 0.11 | 1.28 |  |  |  |  |  | 

Source: patent US20100184818A1, “PHOTOSENSITIZERS FOR TARGETED PHOTODYNAMIC THERAPY” (THE GENERAL HOSPITAL CORPORATION, priority 2007, published 2010)
